For this assay, the system named is rat heart. Nature of the assay: Coronary blood flow (PCS2A), isolated perfused rat heart. On the set-up: species or system rat (male). Conditions: read-out: effect on heart rate (HR). The protocol: Male rats (400-600 gms) are pretreated with Na heparin 2000 units and anesthetized with Na pentobarbital (50 mg/kg) administered intraperitoneally. Once anesthetized, the rat heart is rapidly excised, the ascending aorta fitted to the aortic perfusion cannula, and secured with a ligature. The coronary arteries are perfused initially at a rate of about 15 ml/min for two to three minutes, afterwhich they are perfused at constant pressure of 70 mm Hg and temperature of 37° C. The electrocardiogram (ECG) is recorded using two platinum electrodes positioned at the base and apex of the left ventricle. A second heart is excised, cannulated, and perfused by the same method outlined above. Both hearts are tested in parallel. The standard physiological salt solution (PSS) is a modified Krebs-Hanseleit bicarbonate buffer of the following composition in mM concentration: NaCl, 127; NaHCO3, 25; dextrose, 5.5; Na Pyruvate, 2.0; KCl, 4.7; MgSO4, 1.1; KH 2PO4, 1.2; CaCl2.2H2 O, 2.5; CaNa2 EDTA, 0.05.
A 30-minute stabilization period is observed before starting the test protocol.
The microprocessor control system is a servo mechanism which permits coronary perfusion pressure (CPP) and drug concentration to be maintained constant independent of changes in coronary flow. The level at which CPP and drug concentration are maintained can be changed by commands communicated through the microprocessor keyboard. Dose-response curves are carried out by perfusing concentrated drug solution (DC) at rates proportional to total coronary flow (CFT). Drug concentrations are increased by proportionate increases in the rate of DC infusion over CFT via the microprocessor keyboard. The proportional flow rates for DC:CFT is about 0.0002:1 at the low end and 0.02:1 at the high end of the dose-response curve. Dose-response curves encompassing at least two log doses are carried out by preparing two DCs with a concentration difference of 1:100. Following the first dose range of two log doses, the DC are switched, proportional pumping rate adjusted, and the dose-responsecurve continued for another two log doses. The standard dose-response curve is carried out in one-half log dose increments starting at a subthreshold dose and ending at a dose which produces near maximal response in activity. Standard reference compounds are tested over the range of 10^-9 to 10^-6 M.
Measurements are for heart rate (HR) and coronary flow (CF). Units are: HR, beats/minute (bpm) and CF, milliliters/minute (ml/min). HR is calculated from the ECG strip chart recording and CF is calculated by recording analog outputs from pumps 1 and 2. Outputs from pump #1=CFT and the output from pump #2=CF for heart B (CFB). CF for heart A (CFA) is calculated (CFT -CFB =CFA).

In the case of `OC[C@H]1O[C@@H](n2cnc3c(NCCC(c4ccccc4)c4ccccc4)ncnc32)[C@H](O)[C@@H]1O` [Example 2, N^6-(3,3-Diphenylpropyl)adenosine], for the setting “1 × 10^-6 Molar”, the activation at 1 µM is -19%. For the same compound, the activation at 0.1 µM (1 × 10^-7 Molar) was -5%. Further, the activation at 0.01 µM (1 × 10^-8 Molar) is -2%. In addition, the activation at 3 µM (3 × 10^-6 Molar) was -34%.

The values are drawn from patent publication US4657897A, “N^6 -substituted adenosines for treating pain” (Warner-Lambert Company, priority 1985, dated 1987).
